Assay results as given in patent publication US6670345B1 (Dabur Research Foundation, priority 1997, dated 2003).
≈ marks a conversion by molar mass, not a printed value.

Tests used:
Conditions in all cases: 72 hours
[1] = tested on: leukemia cells (MOLT-4); test: MTT cytotoxicity assay, leukemia cells (MOLT-4); type: cell-based, human
Procedure: (§1) After 72 hours, the assay was terminated and percent cyotoxicities calculated.

[2] = tested on: lymphoma cells (U937); test: MTT cytotoxicity assay, lymphoma cells (U937); type: cell-based, human
Procedure: as §1

[3] = tested on: human prostate (DU145); test: MTT cytotoxicity assay, human prostate (DU145); type: cell-based
Procedure: as §1

[4] = tested on: human colon (HT29); test: MTT cytotoxicity assay, human colon (HT29); type: cell-based
Procedure: as §1

[5] = tested on: human larynx (HeP.2); test: MTT cytotoxicity assay, human larynx (HeP.2); type: cell-based
Procedure: as §1

[6] = tested on: human lung (L132); test: MTT cytotoxicity assay, human lung (L132); type: cell-based
Procedure: as §1

[7] = tested on: ovarian cancer cells (PA-1); test: MTT cytotoxicity assay, ovarian cancer cells (PA-1); type: cell-based, human
Procedure: as §1

**Q.** Which results are given for `C=C(C)C1CCC2(C(=O)OCC(=O)OC)CCC3(C)C(CCC4C5(C)CCC(NCCO)C(C)(C)C5CCC43C)C12` (centres unmarked) [Derivative 1027]?
**A.** ED50 Leukemia MOLT-4 [1]: 2.0 µg/mL (≈ 3.5 µM); ED50 Lymphoma U937 [2]: 4.5 µg/mL (≈ 7.87 µM); ED50 Prostate DU 145 [3]: 5.7 µg/mL (≈ 9.97 µM); ED50 Colon HT-29 [4]: 7.2 µg/mL (≈ 12.6 µM); ED50 Larynx Hep. 2 [5]: 4.2 µg/mL (≈ 7.34 µM); ED50 Lung L 132 [6]: 7.0 µg/mL (≈ 12.2 µM); ED50 Ovary PA-I [7]: >4.0 µg/mL

**Q.** Which results are given for `CC(C)C1CCC2(C(=O)O)CCC3(C)C(CCC4C5(C)CCC(OC(=O)c6ccccc6C(F)(F)F)C(C)(C)C5CCC43C)C12` (centres unmarked) [Derivative 943]?
**A.** ED50 Leukemia MOLT-4 [1]: 1.6 µg/mL (≈ 2.54 µM); ED50 Lymphoma U937 [2]: 3.2 µg/mL (≈ 5.07 µM); ED50 Prostate DU 145 [3]: >4 µg/mL; ED50 Colon HT-29 [4]: >10 µg/mL; ED50 Larynx Hep. 2 [5]: 2.0 µg/mL (≈ 3.17 µM); ED50 Lung L 132 [6]: 4.0 µg/mL (≈ 6.34 µM); ED50 Ovary PA-I [7]: >4.0 µg/mL
